Measured values published in patent publication US12697330B2, “Therapeutic methods using vadadustat” (Akebia Therapeutics, Inc., priority 2021, dated 2026).

Tests used:
Format in all cases: in vivo, human
healthy adults = experiment: Drug interaction study with co-administration of vadadustat in healthy adults; conditions: healthy adults; extent of increase
Description: Sulfasalazine. Other Breast Cancer Resistance Protein Substrates. and Probenecid. Exposures to sulfasalazine (moderately) and mesalamine (mildly) were increased with co-administration of vadadustat based on a study in healthy adults. In subjects taking vadadustat, sulfasalazine and other clinically relevant substrates of the breast cancer resistance protein (BCRP) transporter (e.g., sulfasalazine, methotrexate, mitoxantrone, imatinib, irinotecan, lapatinib, topotecan, tenofovir, glecaprevir, pibrentasvir, or sofosbuvir), caution should be taken during the study. Probenecid, an inhibitor of UDP-glucuronosyltransferase (UGT) and the organic anion transporter (OAT)1/3 transporters, increased vadadustat area under the curve and is prohibited during the study.

[1] = Phase 1b study: pharmacokinetics of vadadustat and its metabolites in plasma of hemodialysis subjects with anemia associated with CKD
Procedure: The primary objective of the study was to assess the pharmacokinetics (PK) of vadadustat 600, 750, and 900 mg daily, and IV ESA (darbepoetin alfa or epoetin alfa) in hemodialysis subjects with anemia associated with CKD. Additional objectives included to evaluate the pharmacodynamics (PD) of vadadustat 600, 750, and 900 mg daily, and IV ESA (darbepoetin alfa or epoetin alfa) in hemodialysis subjects with anemia associated with CKD and to assess the safety and tolerability of vadadustat 600, 750, and 900 mg daily and IV ESA (darbepoetin alfa or epoetin alfa) in hemodialysis subjects with anemia associated with CKD.
Study Design. This was a Phase 1b, randomized, open-label study to evaluate the PK, PD, safety, and tolerability of vadadustat 600, 750, or 900 mg daily, or ESA (darbepoetin alfa or epoetin alfa) in hemodialysis subjects with anemia associated with CKD. The study included a 28-day Screening and Randomization period, a 10-day Treatment Period, and a 30-day Safety Follow up Period after the last dose of study drug (vadadustat or ESA). For subjects randomized to vadadustat, study duration also included an ESA washout period of a minimum of 5 days for epoetin alfa or 9 days for darbepoetin alfa or 9-day ESA Washout period prior to dosing on Day 1.
A total of 46 subjects were enrolled in the study. Written informed consent were obtained before any screening procedures were performed. Subjects were screened within 28 days prior to randomization. Eligible subjects were randomized in a 2:2:2:1 ratio to 1 of 4 treatment groups (600, 750, or 900 mg vadadustat QD, or ESA. Randomized subjects began their 10-day Treatment Period within 36 days of initiating screening.
Eligible subjects were randomly assigned in a 2:2:2:1 ratio to 1 of 4 treatment groups: Group 1—vadadustat 600 mg once daily (QD); Group 2—vadadustat 750 mg QD; Group 3—vadadustat 900 QD; and Group 4—IV ESA. Randomization was stratified by the mean weekly ESA dose calculated over a period of 8 weeks prior to the randomization visit. For darbepoetin, the groups were divided into low dose darbepoetin alfa group (<0.5 μg/kg/week) and high dose darbepoetin alfa group (>0.5 to <1.5 μg/kg/week). For epoetin, the groups were divided into low dose epoetin alfa group (≤90 U/kg/week) and high dose epoetin alfa group (>90 to <300 U/kg/week).
Subjects began dosing on Day 1 and took vadadustat at approximately the same time each day for a total of 10 days. On Day 1 and Day 8, subjects took vadadustat after all predose procedures are completed and within 30 minutes prior to the start of dialysis so that the 1-hour post dose blood sample for PK and PD was collected during dialysis. Vadadustat could be taken with or without food. Subjects were instructed to make every effort to take the drug consistently, either with or without food. Subjects were instructed to swallow the tablets whole with water.
PK and EPO Sample. For each vadadustat treatment group, blood samples for vadadustat PK (and its metabolites) and EPO were collected at the following time points: Day 1: predose, and at 1, 2, 3, 4, 5, 8, and 11 hours post dose; Day 2: 24 hours (−2 hours) post Day 1 dose; Day 6: blood sample for EPO analysis only was collected predose on Day 6; Day 8: predose, and at 1, 2, 3, 4, 5, 8, 11 hours post dose, Day 10 or EOT: predose. For the ESA treatment group, blood samples for analysis of EPO were collected at the following time points: Day 1: predose, and at 0.25, 1, 2, 3, 4, 5, 8, and 11 hours post dose; Day 2: 24 hours (−2 hours) post Day 1 dose.
Primary Endpoints. […]

[2] = Phase 2 study, Main Study: pharmacokinetics (vadadustat and vadadustat-O-glucuronide concentration); conditions: Week 1, Week 1+1 day, and Week 11
Procedure: PK/PD Endpoints. An exposure-response analysis of vadadustat and PD measures were conducted as deemed appropriate. The PK parameters included (but were not limited to) the following: area under concentration-time curve from dosing to last measurable concentration (AUClast), area under concentration-time curve from dosing to infinity (AUCinf), Cmax, apparent total body clearance (CL/F), apparent volume of distribution (Vd/F), and terminal half-life (t1/2). The PD parameters included (but were not limited to) the following: EPO, reticulocytes, iron, ferritin, TIBC, and hepcidin.
PK population: included all randomized subjects who received study drug (vadadustat or epoetin alfa) and had enough drug concentrations to estimate AUC and Cmax. Analysis of this population was based on the dose amount taken at the date of PK sampling for the vadadustat group.

Exposures increased with co-administration of vadadustat (healthy adults) | metabolite exposure versus dose ([1]; Day 8) | accumulation versus dose ([1]; most pronounced in the 900 mg vadadustat treatment group) | Compound | mean concentration versus time profiles, dose dependency [2]
mildly |  |  | Nc1ccc(O)c(C(=O)O)c1 [mesalamine] | 
 | increased in a dose-dependent manner | dose-dependent increase in accumulation | O=C(O)CNC(=O)c1ncc(-c2cccc(Cl)c2)cc1O[C@@H]1O[C@H](C(=O)O)[C@@H](O)[C@H](O)[C@H]1O [vadadustat-O-glucuronide] | concentrations increased with dose levels
moderately |  |  | O=C(O)c1cc(/N=N/c2ccc(S(=O)(=O)Nc3ccccn3)cc2)ccc1O [sulfasalazine] | 
